Laboratory results: publication PMC7738871, “Covalent modification of Keap1 at Cys77 and Cys434 by pubescenoside a suppresses oxidative stress-induced NLRP3 inflammasome activation in myocardial ischemia-reperfusion injury” (Theranostics, 2021)

What was measured:
[1] = tested on: Nrf2-/- mice under AMI/R injury; assay: LAD-induced AMI/R in Nrf2-/- mice; assay type: in vivo, mouse
Method: The experimental procedures and protocols were approved by the Committee on Ethical USE of Animals of International Institute for Translational Chinese Medicine, Guangzhou University of Chinese Medicine (No. IITCM-20180115). Adult male C57BL/6 mice were purchased from the Laboratory Animal Center, Sun Yat-Sen University (Guangzhou, Guangdong, China), and Nrf2 knockout mice were obtained from Riken. Adult male C57BL/6 or Nrf2 knockout mice were treated with 30 mg/kg PBA or an equal volume of vehicle 15 min prior to reperfusion. Mice were divided into 6 groups: (1) Wild-type sham (n = 10): C57BL/6 mice received vehicle, as the sham group; (2) Wild-type AMI/R group (n = 10): C57BL/6 mice received vehicle (i.p.) 15 min before reperfusion; (3) Wild-type AMI/R plus PBA group (n = 10): C57BL/6 mice received 30 mg/kg PBA (i.p.) 15 min before reperfusion; (4) Nrf2 knockout sham (n = 8) : Nrf2 knockout mice received vehicle (i.p.), as in the sham group; (5) Nrf2 knockout AMI/R group (n = 8): Nrf2 knockout mice received vehicle (i.p.) 15 min before reperfusion; (6) Nrf2 knockout AMI/R plus PBA group (n = 8): Nrf2 knockout mice received 30 mg/kg PBA (i.p.) 15 min before reperfusion. PBA was dissolved in 0.9% NaCl buffer containing 2% EtOH. The vehicle was 0.9% NaCl buffer containing 2% EtOH.
The C57BL/6 mice or Nrf2 knockout mice underwent myocardial ischemia-reperfusion injury as described previously. In brief, mice were anaesthetized by i.p. injection of sodium pentobarbital at a dose of 50 mg/kg and ventilated under a pressure-control VentStar R415 ventilator (RWD Life Science Inc., Shenzhen, China). Following thoracotomy between the 3rd and 4th intercostal spaces, the mouse heart was exposed. The LAD was ligated with an 8-0 silk suture and the PE10 tube for 30 min. PBA and vehicle were i.p. injected 15 min prior to reperfusion. After 30 min of ischemia, the suture with PE10 tube was removed. At the end of 24 h of reperfusion, the LAD was relegated, and 1% Evans blue dye was injected to measure the area at risk (AAR). The hearts of the mice were collected, and frozen at -80 °C for 10 min and cut into 5 slices. The slices were incubated with 1% 2,3,5-triphenyltetrazolium chloride (TTC, Santa Cruz, USA) at 37 °C for 15 min and fixed with 4% paraformaldehyde overnight. The slices were captured and the areas of AAR and IA were quantified by using ImageJ software.
Hemodynamic measurements were performed using a PV-loop catheter (Transonic Systems Inc., Ithaca, NY, USA). Hemodynamic measurements were analysed using Ponemah 7700 modules software according to a standardized protocol. The maximum rate of rise of left ventricular pressure increase (+dp/dtmax) and the maximum rate of rise of left ventricular pressure decrease (-dp/dtmax) were calculated for all mice.

[2] = tested on: primary mouse cardiomyocytes transfected with C77S and C434S-Keap1; assay: OGD/R viability in Keap1-mutant-transfected primary cardiomyocytes; assay type: cell-based; settings: Cys77S and Cys434S-Keap1 mutant vectors, MTT
Method: Figure 6 PBA suppresses Keap1-mediated ubiquitination of Nrf2 by disrupting the interaction between Cul3 and Keap1. (A and B) PBA suppressed Nrf2 ubiquitination in a Keap1-Cys77 and C434-dependent manner. First, 293T cells were transfected with WT-Keap1 or C77S and C434S-Keap1, Myc-Nrf2, and Ub plasmids for 24 h and treated with 30 μM PBA. The cell lysates were immunoprecipitated using anti-Myc beads, and the ubiquitination level was evaluated using the anti-Ub antibody. (C and D) PBA induced the dissociation of the Nrf2-Keap1 complex. Then, 293T cells were cotransfected with WT-Keap1 and Flag-Nrf2 plasmids for 24 h and treated with 30 μM PBA for 12 h. The cell lysates were immunoprecipitated with the anti-Flag antibody, and the level of Nrf2 was assessed using the anti-Nrf2 antibody. (E and F) PBA disrupted the interaction between Cul3 and Keap1. […] The cell lysates were immunoprecipitated with the anti-Flag antibody, and the level of Cul3 was measured using the anti-Cul3 antibody. #p < 0.05, ##p < 0.01, ###p < 0.001, the control vs DMSO; *p < 0.05,**p < 0.01, ***p < 0.001, PBA or tBHQ vs DMSO. […] Cell viability was measured by MTT assays. #p < 0.05, ###p < 0.001, the control vs OGD/R; **p < 0.01, ***p < 0.001, OGD/R+PBA vs OGD/R.
Cell viability was determined by MTT assays. […] And the solution was measured at the absorbance of 490 nm by a spectrophotometer (Thermo Fisher Scientific, MA, USA). […]

SMILES: C=C(COC(=O)C=Cc1ccc(O)c(O)c1)C(O)COC1OC(CO)C(O)C(O)C1O (stereo not drawn) [PBA, pubescenoside A]
- inflammatory cells infiltration and disturbed myofibrillar structure (H&E staining) [1]: could not suppress
- cardioprotective effect ([1]; 30 mg/kg i.p., AMI/R): disappeared
- decrease effect of CK-MB level ([1]; 30 mg/kg i.p., AMI/R): blocked
- increase effect of -dp/dtmax and -dp/dtmax ([1]; 30 mg/kg i.p., AMI/R): blocked
- suppressive effect on the NLRP3 inflammasome in heart tissue ([1]; WB analysis): blocked
- protective effect against OGD/R injury with mutant Keap1 [2]: blocked the protective effect
